Measurements from US10633419B2, “Immunomodulators” (BRISTOL-MYERS SQUIBB COMPANY, priority 2014, dated 2020).
Positions of bridges follow the written chain, without caps; N, C: chain ends. Non-standard residues stand in square brackets, D forms with d. Residues, ends and D or L forms follow the SMILES beside them. *: point of attachment. X12 = O=C(O)CCCCCCCCCCCCCCCCCCC(=O)N[C@@H](CCC(=O)NCCCOCCOCCOCCCN*)C(=O)O; Dap(Nα-HOOC(CH2)16CO)OH = O=C(O)CCCCCCCCCCCCCCCCC(=O)N[C@@H](CN*)C(=O)O; X25 = CCCCCCCC[C@@H](NC(=O)CCC(=O)NCCCOCCOCCOCCCN*)C(=O)O; Trp(1-CH2COOH) = N[C@@H](Cc1cn(CC(=O)O)c2ccccc12)C(=O)O; X3 = NC(=O)[C@H](CC(=O)O)NC(=O)CCC(=O)NCCCOCCOCCOCCCN*; X14 = O=C(O)CCCCCCCCCCNC(=O)CCC(=O)NCCCOCCOCCOCCCN*; X9 = O=C(O)CCCCCCCCCCCCCCCCC(=O)N[C@@H](CCN*)C(=O)O; Phe(4-F) = N[C@@H](Cc1ccc(F)cc1)C(=O)O; d(cisHyp) = O=C(O)[C@H]1C[C@@H](O)CN1; PEG6 = NCCOCCOCCOCCOCCOCCOCCC(=O)O; Hyp = O=C(O)[C@@H]1C[C@@H](O)CN1; X32 = O=C(O)CCCCCCCCCCCCCCCCCCN*; Undecanoyl = CCCCCCCCCCC(=O)*; NMeNle = CCCC[C@H](NC)C(=O)O; Dap(Me) = CNC[C@H](N)C(=O)O; Pip = O=C(O)[C@@H]1CCCCN1; NMeA = CN[C@@H](C)C(=O)O; Pra = C#CC[C@H](N)C(=O)O; Aun = NCCCCCCCCCCC(=O)O; Dab = NCC[C@H](N)C(=O)O; Dap = NC[C@H](N)C(=O)O

molecular target: T1, PD-L1 (Homo sapiens, UniProt Q9NZQ7); assay: PD-1/PD-L1 Homogenous Time-Resolved Fluorescence (HTRF) binding assay (PD-1-Ig/PD-L1-His); details: inhibition of PD-1-Ig binding to PD-L1-TVMV-His; value given as number; read-out: HTRF IC50
T1 construct: hPDL1(19-239)-TVMV-His; made in house; host or cells: HEK293T
T1 sequence (Q9NZQ7 with tags, fused parts or gaps): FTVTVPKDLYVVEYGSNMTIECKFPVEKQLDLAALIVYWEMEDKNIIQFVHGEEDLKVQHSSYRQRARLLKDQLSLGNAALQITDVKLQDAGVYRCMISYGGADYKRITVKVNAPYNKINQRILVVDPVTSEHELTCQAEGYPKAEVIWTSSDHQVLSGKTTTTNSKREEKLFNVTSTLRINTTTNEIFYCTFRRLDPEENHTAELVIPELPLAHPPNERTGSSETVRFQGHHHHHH
How it was run: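 Inhibitors pre-incubated 15 min with PD-L1-His (10 nM final), then PD-1-Ig (20 nM final) added for 15 min in dPBS/0.1% BSA/0.05% Tween-20. Eu-cryptate anti-Ig (1 nM) and APC anti-His (20 nM) added, 30 min equilibration, 665/620 nm HTRF ratio read.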

| IC50 [nM] | SMILES |
| --- | --- |
| 91.4 | CCCCCCCCCCC(=O)NCCCC[C@H](NC(=O)[C@H](CC(=O)O)NC(=O)CNC(=O)[C@@H]1CSCC(=O)N[C@@H](Cc2ccc(O)cc2)C(=O)N(C)[C@@H](C)C(=O)N[C@@H](CC(N)=O)C(=O)N2CCC[C@H]2C(=O)N[C@@H](Cc2cnc[nH]2)C(=O)N[C@@H](CCC(=O)O)C(=O)N2C[C@H](O)C[C@H]2C(=O)N[C@@H](Cc2c[nH]c3ccccc23)C(=O)N[C@@H](CO)C(=O)N[C@@H](Cc2c[nH]c3ccccc23)C(=O)N(C)[C@@H](CCCC)C(=O)N(C)[C@@H](CCCC)C(=O)N[C@@H](CC(C)C)C(=O)N1)C(N)=O [Example 11009] ({CH2CO}-Y[NMeA]NPHE[Hyp]WSW[NMeNle][NMeNle]LCGDK(Undecanoyl)-NH2; thioether N-14) |

same assay, conditions: inhibition of PD-1-Ig binding to PD-L1-TVMV-His; value given as range class; read-out: HTRF IC50

| IC50 [nM] | SMILES |
| --- | --- |
| 0.3 to 9.9 | CCCC[C@H]1C(=O)N(C)[C@@H](CCCC)C(=O)N[C@@H](CCCNC(=N)N)C(=O)N[C@H](C(=O)NCC(=O)NCCCOCCOCCOCCCNC(=O)CCC(=O)NCCCCCCCCCCC(=O)O)CSCC(=O)N[C@@H](Cc2ccc(O)cc2)C(=O)N(C)[C@@H](C)C(=O)N[C@@H](CC(=O)O)C(=O)N2CCC[C@H]2C(=O)N[C@@H](Cc2cnc[nH]2)C(=O)N[C@@H](CC(C)C)C(=O)N2C[C@H](O)C[C@H]2C(=O)N[C@@H](Cc2c[nH]c3ccccc23)C(=O)N[C@@H](CO)C(=O)N[C@@H](Cc2c[nH]c3ccccc23)C(=O)N1C [Example 11068] ({CH2CO}-Y[NMeA]DPHL[Hyp]WSW[NMeNle][NMeNle]RCG-X14; thioether N-14) |
| 100 to 1600 | CCCCCCCCCCC(=O)NCCCC[C@H](NC(=O)[C@H](CC(=O)O)NC(=O)[C@@H]1CSCC(=O)N[C@@H](Cc2ccc(O)cc2)C(=O)N(C)[C@@H](C)C(=O)N[C@@H](CC(=O)O)C(=O)N2CCC[C@H]2C(=O)N[C@@H](Cc2cnc[nH]2)C(=O)N[C@@H](CC(C)C)C(=O)N2C[C@H](O)C[C@H]2C(=O)N[C@@H](Cc2c[nH]c3ccccc23)C(=O)N[C@@H](CO)C(=O)N[C@@H](Cc2c[nH]c3ccccc23)C(=O)N(C)[C@@H](CCCC)C(=O)N(C)[C@@H](CCCC)C(=O)N[C@@H](CCCNC(=N)N)C(=O)N1)C(N)=O [Example 11008] ({CH2CO}-Y[NMeA]DPHL[Hyp]WSW[NMeNle][NMeNle]RCDK(Undecanoyl)-NH2; thioether N-14) |
| 0.3 to 9.9 | CCCC[C@H]1C(=O)N(C)[C@@H](CCCC)C(=O)N[C@@H](CC(C)C)C(=O)N[C@H](C(=O)NCC(=O)N[C@@H](CCC(=O)O)C(=O)NCCCOCCOCCOCCCNC(=O)CC[C@H](NC(=O)CCCCCCCCCCCCCCCCCCC(=O)O)C(=O)O)CSCC(=O)N[C@@H](Cc2ccc(O)cc2)C(=O)N(C)[C@@H](C)C(=O)N[C@@H](CC(N)=O)C(=O)N2CCC[C@H]2C(=O)N[C@@H](CN)C(=O)N[C@@H](CC(C)C)C(=O)N2C[C@H](O)C[C@H]2C(=O)N[C@@H](Cc2c[nH]c3ccccc23)C(=O)N[C@@H](CCN)C(=O)N[C@@H](Cc2cn(CC(=O)O)c3ccccc23)C(=O)N1C [Example 11226] ({CH2CO}-Y[NMeA]NP[Dap]L[Hyp]W[Dab][Trp(1-CH2COOH)][NMeNle][NMeNle]LCGE-X12; thioether N-14) |
| 0.3 to 9.9 | C#CC[C@H](NC(=O)CNC(=O)[C@@H]1CSCC(=O)N[C@@H](Cc2ccc(O)cc2)C(=O)N2CCCC[C@H]2C(=O)N[C@@H](CC(N)=O)C(=O)N2CCC[C@H]2C(=O)N[C@@H](CNC)C(=O)N[C@@H](CC(C)C)C(=O)N2C[C@H](O)C[C@H]2C(=O)N[C@@H](Cc2c[nH]c3ccccc23)C(=O)N[C@@H](CCN)C(=O)N[C@@H](Cc2cn(CC(=O)O)c3ccccc23)C(=O)N(C)[C@@H](CCCC)C(=O)N(C)[C@@H](CCCC)C(=O)N[C@@H](CC(C)C)C(=O)N1)C(=O)O [INT130AK] ({CH2CO}-Y[Pip]NP[Dap(Me)]L[Hyp]W[Dab][Trp(1-CH2COOH)][NMeNle][NMeNle]LCG[Pra]-OH; thioether N-14) |
| 10 to 99 | CCCCCCCC[C@@H](NC(=O)CCC(=O)NCCCOCCOCCOCCCNC(=O)[C@@H]1CSCC(=O)N[C@@H](Cc2ccc(O)cc2)C(=O)N(C)[C@@H](C)C(=O)N[C@@H](CC(N)=O)C(=O)N2CCC[C@H]2C(=O)N[C@@H](CN)C(=O)N[C@@H](CC(C)C)C(=O)N2C[C@H](O)C[C@H]2C(=O)N[C@@H](Cc2c[nH]c3ccccc23)C(=O)N[C@@H](CCN)C(=O)N[C@@H](Cc2cn(CC(=O)O)c3ccccc23)C(=O)N(C)[C@@H](CCCC)C(=O)N(C)[C@@H](CCCC)C(=O)N[C@@H](CC(C)C)C(=O)N1)C(=O)O [Example 11135] ({CH2CO}-Y[NMeA]NP[Dap]L[Hyp]W[Dab][Trp(1-CH2COOH)][NMeNle][NMeNle]LC-X25; thioether N-14) |
| 0.3 to 9.9 | C#CC[C@H](NC(=O)CNC(=O)[C@@H]1CSCC(=O)N[C@@H](Cc2ccc(O)cc2)C(=O)N(C)[C@@H](C)C(=O)N[C@@H](CC(=O)O)C(=O)N2CCC[C@H]2C(=O)N[C@@H](Cc2c[nH]cn2)C(=O)N[C@@H](CCC(N)=O)C(=O)N2C[C@H](O)C[C@H]2C(=O)N[C@@H](Cc2c[nH]c3ccccc23)C(=O)N[C@@H](CO)C(=O)N[C@@H](Cc2c[nH]c3ccccc23)C(=O)N(C)[C@@H](CCCC)C(=O)N(C)[C@@H](CCCC)C(=O)N[C@@H](CCC(=O)O)C(=O)N1)C(=O)NCC(N)=O [INT 1400C] ({CH2CO}-Y[NMeA]DPHQ[Hyp]WSW[NMeNle][NMeNle]ECG[Pra]G-NH2; thioether N-14) |
| 10 to 99 | CCCC[C@H]1C(=O)N(C)[C@@H](CCCC)C(=O)N[C@@H](CC(C)C)C(=O)N[C@H](C(=O)NCC(=O)NCCCOCCOCCOCCCNC(=O)CCC(=O)N[C@@H](CC(=O)O)C(N)=O)CSCC(=O)N[C@@H](Cc2ccc(O)cc2)C(=O)N(C)[C@@H](C)C(=O)N[C@@H](CC(N)=O)C(=O)N2CCC[C@H]2C(=O)N[C@@H](Cc2cnc[nH]2)C(=O)N[C@@H](CCC(=O)O)C(=O)N2C[C@H](O)C[C@H]2C(=O)N[C@@H](Cc2c[nH]c3ccccc23)C(=O)N[C@@H](CCN)C(=O)N[C@@H](Cc2c[nH]c3ccccc23)C(=O)N1C [Example 11065] ({CH2CO}-Y[NMeA]NPHE[Hyp]W[Dab]W[NMeNle][NMeNle]LCG-X3; thioether N-14) |
| 100 to 1600 | CCCC[C@H]1C(=O)N(C)[C@@H](CCCC)C(=O)N[C@@H](CC(C)C)C(=O)N[C@H](C(=O)NCC(=O)N[C@@H](CCC(=O)NC[C@H](NC(=O)CCCCCCCCCCCCCCCCC(=O)O)C(=O)O)C(=O)O)CSCC(=O)N[C@@H](Cc2ccc(O)cc2)C(=O)N(C)[C@@H](C)C(=O)N[C@@H](CC(N)=O)C(=O)N2CCC[C@H]2C(=O)N[C@@H](CN)C(=O)N[C@@H](CC(C)C)C(=O)N2C[C@H](O)C[C@H]2C(=O)N[C@@H](Cc2c[nH]c3ccccc23)C(=O)N[C@@H](CCN)C(=O)N[C@@H](Cc2cn(CC(=O)O)c3ccccc23)C(=O)N1C [Example 11173] ({CH2CO}-Y[NMeA]NP[Dap]L[Hyp]W[Dab][Trp(1-CH2COOH)][NMeNle][NMeNle]LCGE(Dap(Nα-HOOC(CH2)16CO)OH)-OH; thioether N-14) |
| 100 to 1600 | CCCC[C@H]1C(=O)N(C)[C@@H](CCCC)C(=O)N[C@@H](CC(C)C)C(=O)N[C@H](C(=O)NCCOCCOCCOCCOCCOCCOCCC(=O)NCCCCCCCCCCC(=O)O)CSCC(=O)N[C@@H](Cc2ccc(O)cc2)C(=O)N(C)[C@@H](C)C(=O)N[C@@H](CC(N)=O)C(=O)N2CCC[C@H]2C(=O)N[C@@H](CO)C(=O)N[C@@H](CCC(N)=O)C(=O)N2C[C@H](O)C[C@@H]2C(=O)N[C@@H](Cc2c[nH]c3ccccc23)C(=O)N[C@@H](CO)C(=O)N[C@@H](Cc2cn(CC(=O)O)c3ccccc23)C(=O)N1C [Example 11060] ({CH2CO}-Y[NMeA]NPSQ[d(cisHyp)]WS[Trp(1-CH2COOH)][NMeNle][NMeNle]LC[PEG6][Aun]-OH; thioether N-14) |
| 10 to 99 | CCCC[C@H]1C(=O)N(C)[C@@H](CCCC)C(=O)N[C@@H](CC(C)C)C(=O)N[C@H](C(=O)NCC(=O)NCC(=O)NCCCCCCCCCCCCCCCCCCC(=O)O)CSCC(=O)N[C@@H](Cc2ccc(O)cc2)C(=O)N(C)[C@@H](C)C(=O)N[C@@H](CC(N)=O)C(=O)N2CCC[C@H]2C(=O)N[C@@H](CN)C(=O)N[C@@H](CC(C)C)C(=O)N2C[C@H](O)C[C@H]2C(=O)N[C@@H](Cc2c[nH]c3ccccc23)C(=O)N[C@@H](CCN)C(=O)N[C@@H](Cc2cn(CC(=O)O)c3ccccc23)C(=O)N1C [Example 11193] ({CH2CO}-Y[NMeA]NP[Dap]L[Hyp]W[Dab][Trp(1-CH2COOH)][NMeNle][NMeNle]LCGG-X32; thioether N-14) |
| 100 to 1600 | CCCC[C@H]1C(=O)N(C)[C@@H](CCCC)C(=O)N[C@@H](CC(C)C)C(=O)N[C@H](C(=O)NCC(=O)N[C@@H](CC(=O)NCC[C@H](NC(=O)CCCCCCCCCCCCCCCCC(=O)O)C(=O)O)C(=O)O)CSCC(=O)N[C@@H](Cc2ccc(F)cc2)C(=O)N2CCCC[C@H]2C(=O)N[C@@H](CC(=O)O)C(=O)N2CCC[C@H]2C(=O)N[C@@H](CN)C(=O)N[C@@H](CC(C)C)C(=O)N2C[C@H](O)C[C@H]2C(=O)N[C@@H](Cc2c[nH]c3ccccc23)C(=O)N[C@@H](CCN)C(=O)N[C@@H](Cc2cn(CC(=O)O)c3ccccc23)C(=O)N1C [Example 13147] ({CH2CO}-[Phe(4-F)][Pip]DP[Dap]L[Hyp]W[Dab][Trp(1-CH2COOH)][NMeNle][NMeNle]LCGD(X9)-OH; thioether N-14) |
| 10 to 99 | CCCCCCCCCCC(=O)NCCCC[C@H](NC(=O)[C@H](CC(=O)O)NC(=O)[C@@H]1CSCC(=O)N[C@@H](Cc2ccc(O)cc2)C(=O)N(C)[C@@H](C)C(=O)N[C@@H](CC(N)=O)C(=O)N2CCC[C@H]2C(=O)N[C@@H](Cc2cnc[nH]2)C(=O)N[C@@H](CCC(=O)O)C(=O)N2C[C@H](O)C[C@H]2C(=O)N[C@@H](Cc2c[nH]c3ccccc23)C(=O)N[C@@H](CCN)C(=O)N[C@@H](Cc2cn(CC(=O)O)c3ccccc23)C(=O)N(C)[C@@H](CCCC)C(=O)N(C)[C@@H](CCCC)C(=O)N[C@@H](CC(C)C)C(=O)N1)C(N)=O [Example 11011] ({CH2CO}-Y[NMeA]NPHE[Hyp]W[Dab][Trp(1-CH2COOH)][NMeNle][NMeNle]LCDK(Undecanoyl)-NH2; thioether N-14) |
